Reference: ChEMBL document CHEMBL1201862, “PubChem BioAssay data set” (2004)
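In this assay, cells in 96-well plates receive the compound at five concentrations for 48 hours. Endpoints are linearly interpolated between the surrounding concentrations. GI50: concentration for 50% inhibition of growth.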 Calls of active or inactive are those of the source. Cut-off read from the data, not from the text of the source: active = GI50 up to about 1.1 µM and inactive = higher.

What was measured:
Assay in all cases: NCI-60 cell line screen, 48 h
ACHN = tested on: ACHN
BT-549 = tested on: BT-549
CAKI-1 = tested on: CAKI-1
CCRF-CEM = tested on: CCRF-CEM
HCC 2998 = tested on: HCC 2998
HCT-116 = tested on: HCT-116
IGROV-1 = tested on: IGROV-1
LOX IMVI = tested on: LOX IMVI
MCF7 = tested on: MCF7
MDA-MB-435 = tested on: MDA-MB-435
Malme-3M = tested on: Malme-3M
NCI-H23 = tested on: NCI-H23
OVCAR-5 = tested on: OVCAR-5
OVCAR-8 = tested on: OVCAR-8
RXF 393 = tested on: RXF 393
SK-MEL-28 = tested on: SK-MEL-28
SK-MEL-2 = tested on: SK-MEL-2
SN12C = tested on: SN12C
SNB-75 = tested on: SNB-75
UO-31 = tested on: UO-31

Measured: GI50

CCOC(=O)C1=c2[nH]c3cccc4cccc(c43)n2C(=O)CC1c1ccccc1 (stereo not given)
inactive: ACHN > 100 µM | BT-549 > 100 µM | CAKI-1 > 100 µM | CCRF-CEM > 100 µM | HCC 2998 > 100 µM | HCT-116 > 100 µM | IGROV-1 > 100 µM | LOX IMVI > 100 µM | MCF7 > 100 µM | MDA-MB-435 > 100 µM | Malme-3M > 100 µM | NCI-H23 > 100 µM | OVCAR-5 > 100 µM | OVCAR-8 > 100 µM | RXF 393 > 100 µM | SK-MEL-28 > 100 µM | SK-MEL-2 > 100 µM | SN12C > 100 µM | SNB-75 > 100 µM | UO-31 > 100 µM

CC(=O)O[C@H]1CC[C@@]2(C)C(=CC[C@H]3[C@@H]4C[C@H](N5CCOCC5)[C@H](OC(C)=O)[C@@]4(C)CC[C@@H]32)C1
inactive: ACHN > 100 µM | BT-549 > 100 µM | CAKI-1 > 100 µM | CCRF-CEM > 100 µM | HCC 2998 > 100 µM | HCT-116 > 100 µM | IGROV-1 > 100 µM | LOX IMVI > 100 µM | MCF7 > 100 µM | MDA-MB-435 > 100 µM | Malme-3M > 100 µM | NCI-H23 > 100 µM | OVCAR-5 > 100 µM | OVCAR-8 > 100 µM | RXF 393 42.4 µM | SK-MEL-28 > 100 µM | SK-MEL-2 > 100 µM | SN12C > 100 µM | SNB-75 71.6 µM | UO-31 > 100 µM

CC1CCC2C(C(=O)O[C@H]3C4C=CO[C@@H](OC5OC(CO)C(O)C(O)C5O)C4[C@@]4(CO)O[C@@H]34)=CO[C@@H](OC3OC(CO)C(O)C(O)C3O)C12 (stereo not given in full)
inactive: ACHN > 10 µM | BT-549 > 10 µM | CAKI-1 > 10 µM | CCRF-CEM > 10 µM | HCC 2998 > 10 µM | HCT-116 > 10 µM | IGROV-1 > 10 µM | LOX IMVI > 10 µM | MCF7 > 10 µM | MDA-MB-435 > 10 µM | Malme-3M > 10 µM | NCI-H23 > 10 µM | OVCAR-5 > 10 µM | OVCAR-8 > 10 µM | RXF 393 > 10 µM | SK-MEL-28 > 10 µM | SK-MEL-2 > 10 µM | SN12C > 10 µM | SNB-75 > 10 µM | UO-31 > 10 µM
